Counter-ions that a name gives are not always drawn. Some results are limits rather than exact numbers.

The test concerns the target T1, human mAChR M4 (Homo sapiens, UniProt P08173).
T1 sequence (P08173 1-479): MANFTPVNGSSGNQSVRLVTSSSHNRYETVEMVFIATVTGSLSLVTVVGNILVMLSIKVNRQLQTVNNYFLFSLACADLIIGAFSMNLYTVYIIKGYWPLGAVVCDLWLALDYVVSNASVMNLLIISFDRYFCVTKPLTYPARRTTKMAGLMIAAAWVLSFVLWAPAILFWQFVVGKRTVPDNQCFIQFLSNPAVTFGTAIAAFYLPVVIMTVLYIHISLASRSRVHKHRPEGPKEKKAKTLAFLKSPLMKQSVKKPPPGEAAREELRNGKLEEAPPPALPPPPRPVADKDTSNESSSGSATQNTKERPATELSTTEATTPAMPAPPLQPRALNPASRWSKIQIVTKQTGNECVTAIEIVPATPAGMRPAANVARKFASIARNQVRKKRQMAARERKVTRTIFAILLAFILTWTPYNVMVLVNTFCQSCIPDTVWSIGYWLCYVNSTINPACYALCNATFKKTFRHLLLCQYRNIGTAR
Put plainly: mAChR M4 cell-based functional assay (calcium flux), human M4. The conditions noted are these: for EC50: Human M4 EC50 (nM); for Emax: % ACh maximum at 30 μM. (Calcium assays in cells follow changes in intracellular calcium, usually with a dye or a luminescent sensor.)

The mark [1] stands for this setting: Table 10, calcium flux, PAM activity with EC20 acetylcholine.
Where [2] appears, read: Table 11, calcium flux, PAM activity with EC20 acetylcholine.

Turning to `COc1cc(F)c(CNc2ncnc3c2oc2nnc(C)c(C)c23)c(F)c1` [Compound 310, N-[(2,6-difluoro-4-methoxy-phenyl)methyl]-3,4-dimethyl-pyrimido[4′,5′:4,5] furo[2,3-c]pyridazin-8-amine], under setting [1], the EC50 (commonly the midpoint of the concentration-response curve) was 845 nM. Further, the Emax (in general, the size of the effect at its maximum, as opposed to the concentration needed) (Table 10) amounted to 53.2%. For the compound `Cc1nnc2sc3c(NCc4ccc(C(C)(C)CO)cc4)ncnc3c2c1C` [Compound 375, 2-[4-[[(3,4-dimethylpyrimido[4′,5′:4,5]thieno[2,3-c]pyridazin-8-yl)amino]methyl]phenyl]-2-methyl-propan-1-ol], under setting [2], the EC50 was found to be 138 nM. Besides, the Emax (Table 11) was 87.2%. Taken in the same sequence, the figures for `Cc1nnc2sc3c(N4CC[C@H](Oc5ccc(C(F)(F)F)cn5)C4)ncnc3c2c1C` [Compound 360, 3,4-dimethyl-8-[(3S)-3-[[5-(trifluoromethyl)-2-pyridyl]oxy]pyrrolidin-1-yl] pyrimido[4′,5′:4,5]thieno [2,3-c]pyridazine dihydrochloride] were 333 nM and 56%. For the compound `Cc1nnc2sc3c(N4CC(C(N)=O)C4)ncnc3c2c1C` [Compound 104, 1-(3,4-dimethylpyrimido [4′,5′:4,5]thieno[2,3-c]pyridazin-8-yl)azetidine-3-carboxamide], the EC50 under setting [1] was 2100 nM. The Emax (Table 10) is 52.9%.

Consider `Cc1nnc2sc3c(NCc4ccc(C(C)(C)O)c(F)c4)ncnc3c2c1C` [Compound 112, 2-[4-[[(3,4-dimethylpyrimido [4′,5′:4,5]thieno[2,3-c]pyridazin-8-yl)amino]methyl]-2-fluoro-phenyl]propan-2-ol], for which, under setting [1], the EC50 turned out to be 255 nM. Further, the Emax (Table 10) was 74.6%. Regarding `Cc1cc(O[C@H]2CN(c3ncnc4c3sc3nnc(C)c(C)c34)C[C@@H]2C)ccn1` [Compound 358, 3,4-dimethyl-8-[(3S,4R)-3-methyl-4-[(2-methyl-4-pyridyl)oxy]pyrrolidin-1-yl]pyrimido[4′,5′:4,5] thieno[2,3-c] pyridazine dihydrochloride], under setting [2], the EC50 was 276 nM. In addition, the Emax (Table 11) turned out to be 76%.

As for `Cc1nc2sc3c(NC4CN(c5ncc(C(F)(F)F)cn5)C4)ncnc3c2c(C)c1Cl` [Compound 272, 8-chloro-7,9-dimethyl-N-[1-[5-(trifluoromethyl)pyrimidin-2-yl]azetidin-3-yl]pyrido[3′,2′:4,5] hieno[3,2-d]pyrimidin-4-amine dihydrochloride], the concentration giving a half-maximal response (EC50) under setting [1] came to 3620 nM. Also, for the setting “Table 10”, the Emax amounted to 60.6%. For the compound `Cc1nnc2sc3c(NCc4ccc(C(=O)NC5CCCC5)cc4)ncnc3c2c1C` [Compound 153, N-cyclopentyl-4-[[(3,4-dimethylpyrimido [4′,5′:4,5]thieno[2,3-c]pyridazin-8-yl)amino]methyl]benzamide], the EC50 under setting [1] was 114 nM. Moreover, the Emax (Table 10) was found to be 87.4%. Turning to `Cc1nnc2oc3c(NC4CC5(COC5)C4)ncnc3c2c1C` [Compound 305, 3,4-dimethyl-N-(2-oxaspiro[3.3]heptan-6-yl)pyrimido[4′,5′:4,5] furo[2,3-c]pyridazin-8-amine], the EC50 (Table 10, unit μM (bounds)) was over 10000 nM. For the same compound, the Emax (Table 10) was 25.6%. For the compound `Cc1c(Cl)cnc2sc3c(NC4(C)CC4)ncnc3c12` [Compound 226, 8-chloro-9-methyl-N-(1-methylcyclopropyl) pyrido[3′,2′:4,5]thieno [3,2-d]pyrimidin-4-amine], the EC50 under setting [1] is 481 nM. Moreover, the maximum response (Emax) (Table 10) amounted to 49%.

With `Cc1cc(C)c2c(n1)sc1c(NCc3cnc(C)nc3)ncnc12` [Compound 205, 7,9-dimethyl-N-[(2-methylpyrimidin-5-yl)methyl]pyrido[3′,2′:4,5] thieno[3,2-d] pyrimidin-4-amine], the EC50 under setting [1] came to 1400 nM. Further, the Emax (Table 10) worked out at 54.2%. In the case of `Cc1nnc2sc3c(NCc4ccc(F)c(C(=O)NC(C)C)c4)ncnc3c2c1C` [Compound 179, 5-[[(3,4-dimethylpyrimido [4′,5′:4,5]thieno[2,3-c]pyridazin-8-yl)amino]methyl]-2-fluoro-N-isopropyl-benzamide], under setting [1], the EC50 is 748 nM. Moreover, the Emax (Table 10) came to 95.2%.

Regarding `Cc1c(Cl)cnc2sc3c(NC4CC4(C)C)ncnc3c12` (stereo not shown) [Compound 227, 8-chloro-N-(2,2-dimethylcyclopropyl)-9-methyl-pyrido[3′,2′:4,5] thieno[3,2-d] pyrimidin-4-amine], the EC50 under setting [1] amounted to 665 nM. In addition, under “Table 10”, the Emax was determined as 56.2%. As for `Cc1cc(C(C)(C)O)ccc1CNc1ncnc2c1sc1nnc(C)c(C)c12` [Compound 335, 2-[4-[[(3,4-dimethylpyrimido [4′,5′:4,5]thieno[2,3-c]pyridazin-8-yl)amino]methyl]-3-methyl-phenyl]propan-2-ol], where the note is “Table 11”, the Emax came out at 71.1%. Consider `Cc1cc(C)c2c(n1)sc1c(NCc3ccc(C(C)(C)O)cc3)ncnc12` [Compound 206, 2-[4-[[(7,9-dimethylpyrido [3′,2′:4,5]thieno[3,2-d]pyrimidin-4-yl)amino]methyl]phenyl]propan-2-ol], for which, under setting [1], the EC50 was 910 nM. Where the note is “Table 10”, the maximal response (Emax) was 75.8%.

For `Cc1nnc2sc3c(NCc4ccc(-c5ccnn5C)cc4F)ncnc3c2c1C` [Compound 344, N-[[2-fluoro-4-(2-methylpyrazol-3-yl)phenyl]methyl]-3,4-dimethyl-pyrimido[4′,5′:4,5]thieno [2,3-c]pyridazin-8-amine], the EC50 under setting [2] came to 824 nM. For the setting “Table 11”, the Emax was 70.9%. For `Cc1nc2sc3c(N4CCC(F)C4)ncnc3c2c(C)c1Cl` (stereo not shown) [Compound 258, 8-chloro-4-(3-fluoropyrrolidin-1-yl)-7,9-dimethyl-pyrido [3′,2′:4,5]thieno[3,2-d] pyrimidine hydrochloride], under setting [1], the EC50 is 1510 nM. The Emax (Table 10) was 64.9%.

Take `Cc1nc(C2CC2)ccc1N1CC(Nc2ncnc3c2sc2nnc(C)c(C)c23)C1` [Compound 83, N-[1-(6-cyclopropyl-2-methyl-3-pyridyl)azetidin-3-yl]-3,4-dimethyl-pyrimido [4′,5′:4,5]thieno[2,3-c] pyridazin-8-amine]: under setting [1], the EC50 was 288 nM. The Emax (Table 10) was 59.7%. In the case of `Cc1nnc2sc3c(NCc4ccc(C(=O)N5CC[C@H](F)C5)cc4)ncnc3c2c1C` [Compound 128, [4-[[(3,4-dimethylpyrimido [4′,5′:4,5]thieno[2,3-c]pyridazin-8-yl)amino]methyl]phenyl]-[(3S)-3-fluoropyrrolidin-1-yl]methanone], the EC50 under setting [1] stood at 529 nM. Besides, under “Table 10”, the Emax amounted to 92%. Regarding `Cc1nnc2sc3c(NCc4ccc(C(=O)NC(C)C)c(Cl)c4)ncnc3c2c1C` [Compound 318, 2-chloro-4-[[(3,4-dimethylpyrimido[4′,5′:4,5]thieno[2,3-c]pyridazin-8-yl)amino]methyl]-N-isopropyl-benzamide], under setting [2], the EC50 came out at 193 nM. Under “Table 11”, the Emax came to 81.7%. `Cc1nnc2sc3c(NCc4ccc(C(C)(C)N)cc4)ncnc3c2c1C` [Compound 371, N-[[4-(1-amino-1-methyl-ethyl)phenyl]methyl]-3,4-dimethyl-pyrimido[4′,5′:4,5] thieno[2,3-c]pyridazin-8-amine]: the EC50 under setting [2] amounted to 41.6 nM. The Emax (Table 11) is 93.6%. For `Cc1nnc2sc3c(NC4CC5(C4)CN(C(=O)CC(F)(F)F)C5)ncnc3c2c1C` [Compound 168, 1-[6-[(3,4-dimethylpyrimido [4′,5′:4,5]thieno[2,3-c]pyridazin-8-yl)amino]-2-azaspiro[3.3]heptan-2-yl]-3,3,3-trifluoro-propan-1-one], the EC50 under setting [1] was 3970 nM. Besides, the Emax (Table 10) came out at 29%.

The record behind these values is patent US10239887B2, “Positive allosteric modulators of the muscarinic acetylcholine receptor M4” (Vanderbilt University, priority 2016, dated 2019).
